Reference: patent US12617773B2, “Azetidin-3-ylmethanol derivatives as CCR6 receptor modulators” (Idorsia Pharmaceuticals Ltd, priority 2020, dated 2026)

Target: T1, human CCR6 (Homo sapiens, UniProt P51684)
T1 construct: expressed in transfected cells; host or cells: HEK-293
T1 sequence (P51684 1-374): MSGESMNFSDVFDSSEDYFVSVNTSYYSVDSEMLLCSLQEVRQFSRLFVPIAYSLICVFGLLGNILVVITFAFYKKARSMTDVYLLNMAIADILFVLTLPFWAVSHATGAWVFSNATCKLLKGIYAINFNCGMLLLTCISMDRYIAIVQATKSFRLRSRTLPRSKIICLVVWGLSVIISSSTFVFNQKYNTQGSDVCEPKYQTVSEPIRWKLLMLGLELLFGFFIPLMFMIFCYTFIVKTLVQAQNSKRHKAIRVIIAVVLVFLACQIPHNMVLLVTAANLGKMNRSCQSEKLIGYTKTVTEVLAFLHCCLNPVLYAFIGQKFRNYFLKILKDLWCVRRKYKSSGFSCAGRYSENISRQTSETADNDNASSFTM
Experiment: FLIPR assay (inhibition of CCL20-induced calcium signal)
Format: cell-based
Details: HEK-293 cells expressing human CCR6; mean values where determined several times; read-out: FLIPR IC50
Procedure: FLIPR assay: The bioactivity of compounds is tested in a fluorometric imaging plate reader (FLIPR: Molecular Devices) using engineered HEK-293 cells expressing the human CCR6 (GenBank: AY242126). Frozen cells are plated on Poly-L-Lysine precoated 384-well plates 2 days prior to bioassay in DMEM medium supplemented with 10% FCS and 1% Penicillin-Streptomycin. […] This buffer, but lacking the dye, is also used for washing and compound dilution steps (assay buffer). Cells are washed free of excess dye with a wash-station (Biotek), leaving 40 microliter of assay buffer at the end. Cells were incubated for 15 minutes at room temperature in the dark, before adding compounds. Stock solutions of test compounds are made up at a concentration of 10 mM in DMSO, and serially diluted first in DMSO and then transferred in assay buffer to concentrations required for inhibition dose response curves. After a 45-minute incubation period in assay buffer at room temperature, 10 microliters of each compound dilution are transferred from a compound plate to the plate containing the recombinant cells in the FLIPR instrument according to the manufacturer's instructions. After cells and compounds were preincubated for 30 minutes at room temperature in the dark, 10 microliter agonist CCL20 (Peprotech) at a final concentration of 10 nM is added, again using the FLIPR instrument. Changes in fluorescence are monitored before and after addition of the test compounds and agonist. Emission peak values above base level after CCL20 addition are exported after base line subtraction.
The calculated IC50 values may fluctuate depending on the daily assay performance. Fluctuations of this kind are known to those skilled in the art.

SMILES | IC50 [µM]
CC(C)(C)N1CC(C)([C@](O)(c2ccc(OC(F)(F)F)cc2)c2cncc(N3CCCC3)c2)C1 [Example 12, (R)-(1-tert-Butyl-3-methyl-azetidin-3-yl)-(5-pyrrolidin-1-yl-pyridin-3-yl)-(4-trifluoromethoxy-phenyl)-methanol] | 0.0735
COCC#Cc1cncc(C(O)(c2ccc(C(C)C)cc2)C2(C)CN(C)C2)c1 (stereo not shown) [Example 13, (1,3-Dimethyl-azetidin-3-yl)-(4-isopropyl-phenyl)-[5-(3-methoxy-prop-1-ynyl)-pyridin-3-yl]-methanol] | 0.0435
CC(C)c1ccc([C@](O)(c2cncc(CC#CO)c2)C2(C)CN(C)C2)cc1 [Example 14, 3-{5-[(R)-(1,3-Dimethyl-azetidin-3-yl)-hydroxy-(4-isopropyl-phenyl)-methyl]-pyridin-3-yl}-prop-1-yn-1-ol] | 0.0706
CC(C)c1ccc([C@](O)(c2cncc(C#CC(C)(C)O)c2)C2(C)CN(C)C2)cc1 [Example 15, 4-{5-[(R)-(1,3-Dimethyl-azetidin-3-yl)-hydroxy-(4-isopropyl-phenyl)-methyl]-pyridin-3-yl}-2-methyl-but-3-yn-2-ol] | 0.0808
CC(C)c1ccc([C@](O)(c2cncc(C#C[C@@H](C)O)c2)C2(C)CN(C)C2)cc1 [Example 16] | 0.052
CC(C)c1ccc([C@](O)(c2cncc(C#C[C@H](C)O)c2)C2(C)CN(C)C2)cc1 [Example 17] | 0.0535
CC(C)c1ccc([C@](O)(c2cncc(C#CC3(O)CCCC3)c2)C2(C)CN(C)C2)cc1 [Example 18] | 0.0335
CC(C)c1ccc([C@](O)(c2cncc(C#CC3(O)CC3)c2)C2(C)CN(C)C2)cc1 [Example 19] | 0.0449
CC(C)c1ccc([C@](O)(c2cncc(C#CC3(O)CN(C(=O)OC(C)(C)C)C3)c2)C2(C)CN(C)C2)cc1 [Example 20] | 0.023
CC(C)c1ccc([C@](O)(c2cncc(C#CC3(O)CCC3)c2)C2(C)CN(C)C2)cc1 [Example 21] | 0.0479
CC(C)c1ccc([C@](O)(c2cncc(C#CCCO)c2)C2(C)CN(C)C2)cc1 [Example 22] | 0.126
CC(C)c1ccc([C@](O)(c2cncc(C#Cc3cnn(C)c3)c2)C2(C)CN(C)C2)cc1 [Example 23] | 0.0468
CC(C)c1ccc([C@](O)(c2cncc(C#CC(O)c3ccccc3)c2)C2(C)CN(C)C2)cc1 (stereo partly shown) [Example 24] | 0.00644
CC(C)c1ccc([C@](O)(c2cncc(C#CC(C)(O)c3ccccc3)c2)C2(C)CN(C)C2)cc1 (stereo partly shown) [Example 25] | 0.00769
CC(C)c1ccc([C@](O)(c2cncc(C#CC(O)C(C)C)c2)C2(C)CN(C)C2)cc1 (stereo partly shown) [Example 26] | 0.013
CC(C)c1ccc([C@](O)(c2cncc(C#CC3(O)CCOCC3)c2)C2(C)CN(C)C2)cc1 [Example 27] | 0.0437
CC(C)c1ccc([C@](O)(c2cncc(C#CC(O)C3CCOCC3)c2)C2(C)CN(C)C2)cc1 (stereo partly shown) [Example 28] | 0.0446
Cc1nn(C)cc1C(O)C#Cc1cncc([C@@](O)(c2ccc(C(C)C)cc2)C2(C)CN(C)C2)c1 (stereo partly shown) [Example 29] | 0.0855
CC(C)c1ccc([C@](O)(c2cncc(C#CC3CCOCC3)c2)C2(C)CN(C)C2)cc1 [Example 30] | 0.0339
Cc1nc(C(O)C#Cc2cncc([C@@](O)(c3ccc(C(C)C)cc3)C3(C)CN(C)C3)c2)cs1 (stereo partly shown) [Example 31] | 0.0812
CC(C)c1ccc([C@](O)(c2cncc(C#CC(C)(O)c3cccc(F)c3)c2)C2(C)CN(C)C2)cc1 (stereo partly shown) [Example 32] | 0.0187
COc1ccc(C(C)(O)C#Cc2cncc([C@@](O)(c3ccc(C(C)C)cc3)C3(C)CN(C)C3)c2)cc1 (stereo partly shown) [Example 33] | 0.0208
COc1ccccc1C(C)(O)C#Cc1cncc([C@@](O)(c2ccc(C(C)C)cc2)C2(C)CN(C)C2)c1 (stereo partly shown) [Example 34] | 0.0211
CC(C)c1ccc([C@](O)(c2cncc(C#CC(C)(O)c3ccn(C)n3)c2)C2(C)CN(C)C2)cc1 (stereo partly shown) [Example 35] | 0.141
Cc1nc(C(C)(O)C#Cc2cncc([C@@](O)(c3ccc(C(C)C)cc3)C3(C)CN(C)C3)c2)cs1 (stereo partly shown) [Example 36] | 0.0617
